Values of other authors in patent publication US20030194372A1, “Radioimaging probes and the use thereof” (priority 2000, published 2003).

Tested on: atheroma
Settings: literature reports

CCC(Cc1c(I)cc(I)c(N)c1I)C(=O)O[C@H]1CC[C@@]2(C)C(=CC[C@H]3[C@@H]4CC[C@H]([C@H](C)CCCC(C)C)[C@@]4(C)CC[C@@H]32)C1 (stereo partly shown) [CI, cholesteryl iopanoate]
Accumulation in atheroma / atherosclerotic lesions: accumulated preferentially in atheroma relative to normal arterial tissue
